The data set concerns the target ATP-dependent translocase ABCB1 (Homo sapiens, UniProt P08183). Briefly: TP_TRANSPORTER: increase in Calcein intracellular accumulation (Calcein: 1 uM, Lomerizine: 10 uM) in K562/DOX cells. The format is functional, cell-based. The settings on record: k562/adr.

Chain of ATP-dependent translocase ABCB1 (P08183 whole entry): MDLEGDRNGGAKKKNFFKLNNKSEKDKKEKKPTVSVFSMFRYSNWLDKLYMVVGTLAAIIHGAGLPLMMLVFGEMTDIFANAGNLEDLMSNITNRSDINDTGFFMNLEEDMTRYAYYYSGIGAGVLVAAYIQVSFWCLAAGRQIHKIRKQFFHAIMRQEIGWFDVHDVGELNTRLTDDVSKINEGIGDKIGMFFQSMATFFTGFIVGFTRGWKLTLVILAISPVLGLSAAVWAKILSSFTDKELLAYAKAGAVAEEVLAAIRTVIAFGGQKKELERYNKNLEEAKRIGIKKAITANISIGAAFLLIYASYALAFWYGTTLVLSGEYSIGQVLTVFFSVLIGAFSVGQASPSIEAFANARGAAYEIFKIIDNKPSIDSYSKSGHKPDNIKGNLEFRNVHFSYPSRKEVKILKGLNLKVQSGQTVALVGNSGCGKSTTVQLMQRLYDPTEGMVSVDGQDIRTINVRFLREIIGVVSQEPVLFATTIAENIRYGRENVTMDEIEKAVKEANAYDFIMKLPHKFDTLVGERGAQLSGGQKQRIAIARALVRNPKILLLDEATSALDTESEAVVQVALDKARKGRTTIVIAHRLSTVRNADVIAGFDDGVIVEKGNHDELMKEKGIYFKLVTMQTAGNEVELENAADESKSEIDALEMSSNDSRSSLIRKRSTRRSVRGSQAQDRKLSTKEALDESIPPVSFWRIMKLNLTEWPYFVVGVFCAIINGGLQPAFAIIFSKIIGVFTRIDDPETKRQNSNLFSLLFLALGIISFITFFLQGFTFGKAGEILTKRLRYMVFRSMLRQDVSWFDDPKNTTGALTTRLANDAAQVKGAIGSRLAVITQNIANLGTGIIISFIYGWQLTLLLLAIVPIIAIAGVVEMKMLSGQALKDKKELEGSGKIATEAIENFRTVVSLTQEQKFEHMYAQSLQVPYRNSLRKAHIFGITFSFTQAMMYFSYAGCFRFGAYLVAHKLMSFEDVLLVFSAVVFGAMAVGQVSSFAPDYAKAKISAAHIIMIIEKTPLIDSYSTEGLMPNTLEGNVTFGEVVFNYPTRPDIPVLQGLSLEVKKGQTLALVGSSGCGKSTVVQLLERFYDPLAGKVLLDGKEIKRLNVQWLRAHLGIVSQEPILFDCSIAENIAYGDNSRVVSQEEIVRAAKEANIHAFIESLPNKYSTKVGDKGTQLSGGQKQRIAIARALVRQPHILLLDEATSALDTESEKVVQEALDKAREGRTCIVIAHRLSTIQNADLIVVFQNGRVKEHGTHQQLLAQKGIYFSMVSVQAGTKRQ

For `COc1ccc(CN2CCN(C(c3ccc(F)cc3)c3ccc(F)cc3)CC2)c(OC)c1OC` [LOMERIZINE], the Activity entry is “inhibitor [+]”.

The record behind these values is ChEMBL document CHEMBL2073802, “Increase in doxorubicin cytotoxicity by inhibition of P-glycoprotein activity with lomerizine” (Biol Pharm Bull, 2001).
